Assay results published in US11319348B2, “Synthetic beta-amyloid peptides capable of forming stable antigenic oligomers” (The Regents of the University of California, priority 2016, dated 2022).
Non-standard residues stand in square brackets, D forms with d. No end group written: not given here. NMeF = CN[C@@H](Cc1ccccc1)C(=O)O; Orn = NCCC[C@H](N)C(=O)O

What was measured:
[1] = tested on: SH-SY5Y cells; test: LDH release assay; format: cell-based, human; conditions: for LDH release / toxicity toward SH-SY5Y cells, in words / LDH release / lowest concentration with increased LDH release / toxicity (concentrations as low as): SH-SY5Y cells; for LDH release: 72 h
Experimental: Aβ is known to be toxic toward neurons and neuronally derived cells (I. Benilova, et al., 2012, cited supra). To corroborate the toxicity of Aβ, we prepared oligomers of Aβ42 and studied their toxicity toward a human neuroblastoma cell line, SH-SY5Y. Aβ oligomers were prepared according to the procedure developed by Teplow and coworkers using recombinantly expressed Aβ42 pretreated with NH4OH (purchased from rPeptide) (D. B. Teplow, Methods Enzymol. 2006 413, 20-33; and Y. Fezoui, et al., Amyloid. 2000 7, 166-178; the disclosures of which are incorporated herein by reference). Under the conditions of the oligomer preparation, Aβ42 forms predominantly monomer, trimer, and tetramer as assessed by SDS-PAGE (FIG. 28A). It was also observed that bands migrated with molecular weights consistent with a pentamer and hexamer. SH-SY5Y cells were treated with varying concentrations of Aβ42, and toxicity was evaluated using a lactate dehydrogenase (LDH) release assay. Aβ42 increased LDH release in a dose-dependent manner at concentrations as low as 2.5 μM, corroborating the toxicity of Aβ42 (FIG. 28B).
It was hypothesized that trimers 3 and 4 may elicit toxicity similarly to Aβ42. The toxicities of trimers 3 and 4 towards SH-SY5Y cells were evaluated using an LDH assay, using deionized water (vehicle) and peptides 1 and 2 as controls. Trimer 4 increased LDH release in a dose-dependent manner at concentrations as low as 1.5 μM, indicating toxicity toward SH-SY5Y cells (FIG. 29A). LDH release was observed as early as 48 h after addition to the cells and reached a maximum after 72 h.
Many oligomers formed by full-length Aβ are toxic toward cells (I. Benilove, E. Karan, and B. De Strooper, Nat. Neurosci. 2012 15, 349-357; and M. E. Larson and S. E. Lesne J. Neurochem. 2012 120, 125-139; the disclosures of which are incorporated herein by reference). To test whether the oligomers formed by peptide 8 are also toxic, the toxicity of peptide 8 toward neuronally derived SH-SY5Y cells were evaluated using a lactate dehydrogenase (LDH) release assay. Peptide 8 and 10 were compared to investigate how the hexamer-forming Aβ16-36-derived peptide compares to a non-oligomerizing homologue. The toxicity of peptides 2 and 11 were also evaluated to better understand the relationship between oligomerization and toxicity.
The toxicities of peptides 1 and […], and trimers 3 and 4 toward SH-SY5Y cells were assessed by LDH release and caspase-3 activation assays. Cells were incubated in the presence or absence of equivalent concentrations of peptides 1 or 3, or trimers 3 and 4 for 72 h in 96-well plates. The LDH release assay was performed using the Pierce LDH Cytotoxicity Assay Kit from Thermo Scientific. The caspase-3 assay was performed using the Roche APO-One Homogeneous Caspase-3/7 Assay. Experiments were performed in replicates of five and an additional 10 wells were used for controls. Cells were cultured in the inner 60 wells (rows B-G, columns 2-11) of the 96-well plate. DMEM:F12 media (100 μL) was added to the outer wells (rows A and H, columns 1 and 12), in order to ensure the greatest reproducibility of data generated in the inner wells.
A 10 mg/mL stock solution of peptides 1 or […], or trimers 3 and 4 was prepared gravimetrically by dissolving 1 mg of each compound in 100 μL of deionized water that was either filtered through a 0.2 μm syringe filter or autoclaved. The stock solution was used to create 180 μM working solutions of peptides 1 or 3, or 60 μM working solutions of trimers 3 and 4 (these solutions contain equivalent concentrations of peptide). The 180 μM working solutions of peptides 1 and 2 were serially diluted with deionized water to create 90 μM working solutions of peptides 1 and 2. The 60 μM working solutions of trimers 3 and 4 were serially diluted with deionized water to create 30 μM, 15 μM, and 7.5 μM working solutions of trimers 3 and 4.
SH-SY5Y cells were plated in a 96-well plate at 30,000 cells per well. […]

[2] = size exclusion chromatography in sodium acetate buffer; format: physicochemical; conditions: for oligomer state consistent with SEC elution volume: acetate buffer; for oligomer size by SEC: sodium acetate buffer pH 4.5
Experimental: The elution profiles in acetate buffer of trimers were compared to peptides 1 and 2. Size standards vitamin B12 (1.3 kDa), aprotinin (6.5 kDa), and […] (12.4 kDa) eluted at 18.6 mL, 15.4 mL, and 13.4 mL, respectively (FIG. 31A). Trimer 3 and […] eluted at 14.3 mL and at 14.5 mL, respectively. These elution volumes are consistent with the molecular weight of a hexamer (10.6 kDa). The peaks for trimers 3 and 4 tail slightly and may reflect a trimer-hexamer equilibrium in which the hexamer predominates.
Peptides 1 and 2 elute at 16.8 mL and 17.3 mL, respectively.
The oligomerization of peptides 1 and 2 and trimers 3 and 4 was studied by size-exclusion chromatography (SEC) at 4 CC in 50 mM sodium acetate/50 mM acetic acid buffer (sodium acetate buffer) at pH 4.5 as follows: Each peptide or trimer was dissolved in deionized water to a concentration of 10 mg/mL. The peptide or trimer solutions were then diluted to 1 mg/mL by adding 80 μL of the 10 mg/mL solutions to 720 μL of sodium acetate buffer. The peptide or trimer solutions were loaded onto a GE Superdex 75 10/300 GL column at 0.5 mL/min over 1 min. After loading, the samples were run with sodium acetate buffer at 1 mL/min, Chromatograms were recorded at 214 nm and normalized to the highest absorbance value. Standards (cytochrome C, aprotinin, and vitamin B12) were run in the same fashion.

[3] = after addition to SH-SY5Y cells

Substance	LDH release / toxicity toward SH-SY5Y cells, in words [1]	LDH release [1]	oligomer state consistent with SEC elution volume [2]	oligomer size by SEC [2]	lowest concentration with increased LDH release / toxicity (concentrations as low as) [1]	time at which LDH release reached a maximum [1, 3]	time at which LDH release was first observed (as early as) [1, 3]
peptide 1: macrocyclic β-sheet peptide: Aβ17-23 and Aβ30-36 strands linked by two δOrn turns, Orn35, N-methyl on G33 (Seq. ID 18-19)	little or no LDH release	no	dimers	1-2	–	–	–
peptide 2: macrocyclic β-sheet peptide: Aβ17-23 and Aβ30-36 strands linked by two δOrn turns, Orn35, N-methyl on F20 (Seq. ID 20-21)	little or no LDH release	no	dimers	1-2	100 µM	–	–
trimer 3: symmetric tris-disulfide crosslinked trimer generated from peptide 3 (chain 1 [Orn]CVFFCED; chain 2 [Orn]AIIGL[Orn]V; not fully specified (some residues); also: symmetric tris-disulfide crosslinked trimer, macrocyclic by macrolactamization, linkage of strands not given here)	far less LDH release than trimer 4	some	hexamer	6	–	–	–
trimer 4: symmetric tris-disulfide crosslinked trimer generated from peptide 4 (chain 1 [Orn]CVF[NMeF]CED; chain 2 [Orn]AIIGL[Orn]V; also: symmetric tris-disulfide crosslinked trimer, macrocyclic by macrolactamization, linkage of strands not given here)	–	yes	hexamer	6	1.5 µM	72 h	48 h
